Data as given in ChEMBL document CHEMBL6127111, “First-in-Class Small Molecule Degrader of Pregnane X Receptor Enhances Chemotherapy Efficacy” (J Med Chem, 2024).

Columns and labels:
[1] = Cytotoxicity against human SNU-C4 HiBiT-PXR KI cell assessed as cell viability incubated for 24 hrs by celltiter-glo luminescent assay; format: functional
[2] = target: von Hippel-Lindau disease tumor suppressor/Nuclear receptor subfamily 1 group I member 2 (Homo sapiens, UniProt O75469+P40337); test: PROTAC activity at N-terminal PXR/VHL in human SNU-C4 HiBiT-PXR KI cell assessed as reduction in PXR protein level incubated for 24 hrs by Western blot analysis; format: cell-based
Sequence of von Hippel-Lindau disease tumor suppressor/Nuclear receptor subfamily 1 group I member 2 (O75469 whole entry): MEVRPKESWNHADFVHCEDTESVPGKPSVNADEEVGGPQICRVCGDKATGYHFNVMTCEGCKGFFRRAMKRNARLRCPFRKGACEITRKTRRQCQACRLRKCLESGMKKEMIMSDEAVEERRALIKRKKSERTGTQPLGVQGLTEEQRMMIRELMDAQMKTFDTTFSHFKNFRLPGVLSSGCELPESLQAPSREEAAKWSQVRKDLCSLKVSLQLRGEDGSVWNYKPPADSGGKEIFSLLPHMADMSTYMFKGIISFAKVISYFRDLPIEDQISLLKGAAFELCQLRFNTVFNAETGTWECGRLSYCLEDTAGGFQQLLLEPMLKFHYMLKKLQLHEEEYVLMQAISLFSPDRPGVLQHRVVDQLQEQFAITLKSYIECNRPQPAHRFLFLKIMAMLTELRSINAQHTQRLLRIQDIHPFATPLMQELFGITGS
Sequence of von Hippel-Lindau disease tumor suppressor/Nuclear receptor subfamily 1 group I member 2 (P40337 whole entry): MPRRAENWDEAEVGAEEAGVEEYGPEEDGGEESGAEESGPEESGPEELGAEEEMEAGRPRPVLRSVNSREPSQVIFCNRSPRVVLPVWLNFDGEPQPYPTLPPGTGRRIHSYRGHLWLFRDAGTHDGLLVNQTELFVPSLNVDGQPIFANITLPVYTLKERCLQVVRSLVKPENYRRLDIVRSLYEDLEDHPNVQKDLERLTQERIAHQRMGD

[3] = Cytotoxicity against human SNU-C4 HiBiT-PXR KI cell assessed as cell viability incubated for 72 hrs by celltiter-glo luminescent assay; format: functional
[4] = Cytotoxicity against human SNU-C4 HiBiT-PXR KI cell assessed as cell viability at 30 uM incubated for 24 hrs by celltiter-glo luminescent assay relative to control; format: functional; settings: read-out: Activity
[5] = Cytotoxicity against human SNU-C4 HiBiT-PXR KI cell assessed as cell viability at 30 uM incubated for 72 hrs by celltiter-glo luminescent assay relative to control; format: functional; settings: read-out: Activity

| Structure (SMILES) | DC50 [2] [µM] | CC50 [1] [µM] | CC50 [3] [µM] | viability at 30 µM [4] [%] | viability at 30 µM [5] [%] |
| --- | --- | --- | --- | --- | --- |
| COc1cc(OCCCCCCOCCOCC(=O)N[C@H](C(=O)N2C[C@H](O)C[C@H]2C(=O)NCc2ccc(-c3scnc3C)cc2)C(C)(C)C)c(C)cc1-n1nnc(S(=O)(=O)c2ccc(C(C)(C)C)cc2)c1C | – | > 30 | > 30 | – | – |
| CCC[C@H](CC)Oc1ccc(C(C)(C)C)cc1NC(=O)c1nnn(-c2cc(C)c(OCCCCCCOCCOCC(=O)N[C@H](C(=O)N3C[C@H](O)C[C@H]3C(=O)NCc3ccc(-c4scnc4C)cc3)C(C)(C)C)cc2OC)c1C | – | > 30 | > 30 | 93.9 | 104 |
| COc1cc(OCCCCCCOCCCCCOCCCCCC(=O)N[C@H](C(=O)N2C[C@H](O)C[C@H]2C(=O)NCc2ccc(-c3scnc3C)cc2)C(C)(C)C)c(C)cc1-n1nnc(S(=O)(=O)c2ccc(C(C)(C)C)cc2)c1C | – | > 30 | > 30 | – | 94.3 |
| CC(=O)N[C@H](C(=O)N1C[C@H](O)C[C@H]1C(=O)NCc1ccc(-c2scnc2C)cc1)C(C)(C)C | – | > 30 | > 30 | 99.6 | 93 |
| CCCCOc1ccc(C(C)(C)C)cc1NC(=O)c1nnn(-c2cc(C)c(OCCCCCCOCCOCC(=O)N[C@H](C(=O)N3C[C@H](O)C[C@H]3C(=O)NCc3ccc(-c4scnc4C)cc3)C(C)(C)C)cc2OC)c1C | – | > 30 | > 30 | 96.7 | 91.2 |
| CCC[C@H](CC)Oc1ccc(C(C)(C)C)cc1NC(=O)c1nnn(-c2cc(C)c(OC)cc2OC)c1C | > 30 | > 30 | > 30 | 99.3 | 106 |
| COc1cc(OCCCC(=O)N[C@H](C(=O)N2C[C@H](O)C[C@H]2C(=O)NCc2ccc(-c3scnc3C)cc2)C(C)(C)C)c(C)cc1-n1nnc(S(=O)(=O)c2ccc(C(C)(C)C)cc2)c1C | > 30 | > 30 | > 30 | – | 95.4 |
| CCC[C@H](CC)Oc1ccc(C(=O)NCCCCCCCCC(=O)N[C@H](C(=O)N2C[C@H](O)C[C@H]2C(=O)NCc2ccc(-c3scnc3C)cc2)C(C)(C)C)cc1NC(=O)c1nnn(-c2cc(OC)ccc2OC)c1C | > 30 | > 30 | > 30 | 102 | 104 |
| COc1ccc(OC)c(-n2nnc(C(=O)Nc3cc(OCCCCCCOCCOCC(=O)N[C@H](C(=O)N4C[C@H](O)C[C@H]4C(=O)NCc4ccc(-c5scnc5C)cc4)C(C)(C)C)cc(C(C)(C)C)c3)c2C)c1 | – | > 30 | > 30 | 83.2 | 68.2 |
| COc1cc(OCC(=O)N[C@H](C(=O)N2C[C@H](O)C[C@H]2C(=O)NCc2ccc(-c3scnc3C)cc2)C(C)(C)C)c(C)cc1-n1nnc(S(=O)(=O)c2ccc(C(C)(C)C)cc2)c1C | > 30 | > 30 | > 30 | – | – |
| COc1cc(OCCCCCCOCCOCCOCCOCCOCCOCC(=O)N[C@H](C(=O)N2C[C@H](O)C[C@H]2C(=O)NCc2ccc(-c3scnc3C)cc2)C(C)(C)C)c(C)cc1-n1nnc(S(=O)(=O)c2ccc(C(C)(C)C)cc2)c1C | > 30 | > 30 | > 30 | – | – |
| CCC[C@H](CC)Oc1ccc(C(=O)NCCCCC(=O)N[C@H](C(=O)N2C[C@H](O)C[C@H]2C(=O)NCc2ccc(-c3scnc3C)cc2)C(C)(C)C)cc1NC(=O)c1nnn(-c2cc(OC)ccc2OC)c1C | > 30 | > 30 | > 30 | 101 | 98.9 |
| COc1cc(OCC(=O)NCCOCCOCCOCCOCC(=O)N[C@H](C(=O)N2C[C@H](O)C[C@H]2C(=O)NCc2ccc(-c3scnc3C)cc2)C(C)(C)C)c(C)cc1-n1nnc(S(=O)(=O)c2ccc(C(C)(C)C)cc2)c1C | > 30 | > 30 | > 30 | – | – |

More lines, main results first:

| DC50 [2] [µM] | Structure (SMILES) | CC50 [1] [µM] | CC50 [3] [µM] | viability at 30 µM [4] [%] | viability at 30 µM [5] [%] |
| --- | --- | --- | --- | --- | --- |
| > 30 | COc1cc(OCCCCCCCC(=O)N[C@H](C(=O)N2C[C@H](O)C[C@H]2C(=O)NCc2ccc(-c3scnc3C)cc2)C(C)(C)C)c(C)cc1-n1nnc(S(=O)(=O)c2ccc(C(C)(C)C)cc2)c1C | > 30 | > 30 | – | – |
| > 30 | CCC[C@H](CC)Oc1ccc(C(=O)NCCOCCOCCOCC(=O)N[C@H](C(=O)N2C[C@H](O)C[C@H]2C(=O)NCc2ccc(-c3scnc3C)cc2)C(C)(C)C)cc1NC(=O)c1nnn(-c2cc(OC)ccc2OC)c1C | > 30 | > 30 | 98.3 | 89.1 |
| > 30 | CCC[C@H](CC)Oc1ccc(C(=O)NCCOCCOCCOCCOCC(=O)N[C@H](C(=O)N2C[C@H](O)C[C@H]2C(=O)NCc2ccc(-c3scnc3C)cc2)C(C)(C)C)cc1NC(=O)c1nnn(-c2cc(OC)ccc2OC)c1C | > 30 | > 30 | 100 | 84.1 |
| > 30 | COc1cc(OCCOCCOCCOCCOCCOCCC(=O)N[C@H](C(=O)N2C[C@H](O)C[C@H]2C(=O)NCc2ccc(-c3scnc3C)cc2)C(C)(C)C)c(C)cc1-n1nnc(S(=O)(=O)c2ccc(C(C)(C)C)cc2)c1C | > 30 | > 30 | – | – |
| > 30 | CCC[C@H](CC)Oc1ccc(C(=O)NCCOCCOCC(=O)N[C@H](C(=O)N2C[C@H](O)C[C@H]2C(=O)NCc2ccc(-c3scnc3C)cc2)C(C)(C)C)cc1NC(=O)c1nnn(-c2cc(OC)ccc2OC)c1C | > 30 | > 30 | 103 | 89.7 |
| > 30 | COc1cc(OCCOCCOCCC(=O)N[C@H](C(=O)N2C[C@H](O)C[C@H]2C(=O)NCc2ccc(-c3scnc3C)cc2)C(C)(C)C)c(C)cc1-n1nnc(S(=O)(=O)c2ccc(C(C)(C)C)cc2)c1C | > 30 | > 30 | – | 98.9 |
| > 30 | COc1cc(OCCOCCOCCOCCC(=O)N[C@H](C(=O)N2C[C@H](O)C[C@H]2C(=O)NCc2ccc(-c3scnc3C)cc2)C(C)(C)C)c(C)cc1-n1nnc(S(=O)(=O)c2ccc(C(C)(C)C)cc2)c1C | > 30 | > 30 | – | – |
| > 30 | COc1cc(OCCCCCCOCCOCCOCCCCCC(=O)N[C@H](C(=O)N2C[C@H](O)C[C@H]2C(=O)NCc2ccc(-c3scnc3C)cc2)C(C)(C)C)c(C)cc1-n1nnc(S(=O)(=O)c2ccc(C(C)(C)C)cc2)c1C | > 30 | > 30 | – | – |
| > 30 | COc1cc(OCCOCCC(=O)N[C@H](C(=O)N2C[C@H](O)C[C@H]2C(=O)NCc2ccc(-c3scnc3C)cc2)C(C)(C)C)c(C)cc1-n1nnc(S(=O)(=O)c2ccc(C(C)(C)C)cc2)c1C | > 30 | > 30 | – | – |
| > 30 | CCC[C@H](CC)Oc1ccc(C(C)(C)C)cc1NC(=O)c1nnn(-c2cc(OC)ccc2OC)c1C | > 30 | > 30 | 95.7 | 98.7 |
| > 30 | CCC[C@H](CC)Oc1ccc(C(=O)N[C@H](C(=O)N2C[C@H](O)C[C@H]2C(=O)NCc2ccc(-c3scnc3C)cc2)C(C)(C)C)cc1NC(=O)c1nnn(-c2cc(OC)ccc2OC)c1C | > 30 | > 30 | 99.9 | 101 |
| > 30 | COc1cc(OCCOCCOCCOCCOCCC(=O)N[C@H](C(=O)N2C[C@H](O)C[C@H]2C(=O)NCc2ccc(-c3scnc3C)cc2)C(C)(C)C)c(C)cc1-n1nnc(S(=O)(=O)c2ccc(C(C)(C)C)cc2)c1C | > 30 | > 30 | – | – |
